Experimental data from patent US5232849A, “Bacteriocin from lactococcus lactis subspecies lactis” (Quest International Flavors & Food Ingredients Company …, priority 1992, dated 1993).

Key:
Assay in all cases: Spectrum of antimicrobial activity
Design in all cases: key: + = inhibition; - = no inhibition
Conditions in all cases: pure, titer 3200 AU/ml
[1] = system: L. monocytogenes 36; assay type: cell-based
Experimental: (§1) Bacteriocin assay. To ascertain if the antibacterial substance is secreted into liquid medium, the cultures were grown in MRS broth and cell free filtrates of turbid cultures were made and the filtrate posted on a seeded semisolid agar overlay of the indicator. Antibacterial activity was quantitated by assigning arbitrary units. One arbitrary unit (AU) was defined as 5 μl of the culture supernatant yielding a definite, clear zone of inhibition on the indicator lawn. The titer was expressed as the reciprocal of the highest dilution of supernatant showing inhibition.

[2] = system: L. monocytogenes 08; assay type: cell-based
Experimental: as §1

[3] = system: L. monocytogenes 04; assay type: cell-based
Experimental: as §1

[4] = system: L. monocytogenes 59; assay type: cell-based
Experimental: as §1

[5] = system: L. monocytogenes 38; assay type: cell-based
Experimental: as §1

[6] = system: L. monocytogenes 69; assay type: cell-based
Experimental: as §1

[7] = system: L. monocytogenes 62; assay type: cell-based
Experimental: as §1

[8] = system: L. brevis 329; assay type: cell-based, Lactobacillus brevis
Experimental: as §1

[9] = system: L. brevis 888; assay type: cell-based, Lactobacillus brevis
Experimental: as §1

[10] = system: L. plantarum 346; assay type: cell-based, Lactobacillus plantarum
Experimental: as §1

[11] = system: L. plantarum 355; assay type: cell-based, Lactobacillus plantarum
Experimental: as §1

[12] = system: L. casei 842; assay type: cell-based, Lactobacillus casei
Experimental: as §1

[13] = system: L. casei 326; assay type: cell-based, Lactobacillus casei
Experimental: as §1

[14] = system: L. lactis LLA 2.0; assay type: cell-based, Lactococcus lactis
Experimental: as §1

[15] = system: L. lactis LLA 1.0; assay type: cell-based, Lactococcus lactis
Experimental: as §1

[16] = system: B. subtilis RM125; assay type: cell-based, Bacillus subtilis
Experimental: as §1

[17] = system: B. subtilis amylase^+; assay type: cell-based, Bacillus subtilis
Experimental: as §1

[18] = system: S. mutans V262; assay type: cell-based, Streptococcus mutans
Experimental: as §1

[19] = system: S. mutans GS5; assay type: cell-based, Streptococcus mutans
Experimental: as §1

[20] = system: P. pentosaceus FBB63C; assay type: cell-based, Pediococcus pentosaceus
Experimental: as §1

[21] = system: L. fermentum 342; assay type: cell-based, Lactobacillus fermentum
Experimental: as §1

[22] = system: L. fermentum 701; assay type: cell-based, Lactobacillus fermentum
Experimental: as §1

[23] = system: P. acidilactici A; assay type: cell-based, Pediococcus acidilactici
Experimental: as §1

[24] = system: P. acidilactici PAC 1.0; assay type: cell-based, Pediococcus acidilactici
Experimental: as §1

[25] = system: P. acidilactici B; assay type: cell-based, Pediococcus acidilactici
Experimental: as §1

[26] = system: P. acidilactici D; assay type: cell-based, Pediococcus acidilactici
Experimental: as §1

[27] = system: P. acidilactici C; assay type: cell-based, Pediococcus acidilactici
Experimental: as §1

nisin [Nisin Pure]
+: inhibition of L. monocytogenes 36 [1] | inhibition of L. monocytogenes 08 [2] | inhibition of L. monocytogenes 04 [3] | inhibition of L. monocytogenes 59 [4] | inhibition of L. monocytogenes 38 [5] | inhibition of L. monocytogenes 69 [6] | inhibition of L. monocytogenes 62 [7] | inhibition of L. brevis 329 [8] | inhibition of L. brevis 888 [9] | inhibition of L. plantarum 346 [10] | inhibition of L. plantarum 355 [11] | inhibition of L. casei 842 [12] | inhibition of L. casei 326 [13] | inhibition of L. lactis LLA 2.0 [14] | inhibition of L. lactis LLA 1.0 [15] | inhibition of B. subtilis RM125 [16] | inhibition of B. subtilis amylase^+ [17] | inhibition of S. mutans GS5 [19] | inhibition of P. pentosaceus FBB63C [20] | inhibition of L. fermentum 342 [21] | inhibition of L. fermentum 701 [22] | inhibition of P. acidilactici A [23] | inhibition of P. acidilactici PAC 1.0 [24] | inhibition of P. acidilactici B [25] | inhibition of P. acidilactici D [26] | inhibition of P. acidilactici C [27]
-: inhibition of S. mutans V262 [18]
